Ki and GI50 data for 20 compounds are collected here from patent publication US11596639B2, “Substituted indole Mcl-1 inhibitors” (Vanderbilt University, priority 2016, dated 2023).

The first assay deals with Mcl-1 (Homo sapiens (Human), UniProt Q07820). Briefly: Fluorescence polarization anisotropy (FPA) competition assay, FITC-Bak or FITC-Bim BH3 peptide. It counts as binding. Particulars: read-out: Ki for Inhibition of Mcl-1 by FPA assay. (In general: In fluorescence polarisation assays a small probe gives low polarisation when free and higher when bound to something large.)
Mcl-1, sequence (Q07820 172-327): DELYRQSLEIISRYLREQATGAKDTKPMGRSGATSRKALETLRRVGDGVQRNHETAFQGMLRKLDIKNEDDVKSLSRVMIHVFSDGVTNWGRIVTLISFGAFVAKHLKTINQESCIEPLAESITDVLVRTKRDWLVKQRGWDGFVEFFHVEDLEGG
With `Cc1cc(OCCCc2c3n(c4c(-c5c(C)nn(C)c5C)c(Cl)ccc24)[C@H](C)CN(c2cn(C)c4ccc(C(F)(F)F)cc24)C3=O)cc(C)c1Cl` (single isomer, unassigned) [Example 193], the Ki came out at 3.9 nM.
With `Cc1cc(OCCCc2c3n(c4c(-c5c(C)nn(C)c5C)c(Cl)ccc24)[C@H](C)CN(c2cn(C)c4ccc(C(F)(F)F)cc24)C3=O)cc(C)c1Cl` (single isomer, unassigned) [Example 200], the Ki came out at 6.6 nM.
On the same count and under the same terms, the same measure for `Cc1cc(OCCCc2c(C(=O)NC3CCC(C(=O)O)CC3)[nH]c3c(-c4c(C)ncnc4C)c(Cl)ccc23)cc(C)c1Cl` (single isomer, unassigned) [Example 746, 4-(6-Chloro-3-(3-(4-chloro-3,5-dimethylphenoxy)propyl)-7-(4,6-dimethylpyrimidin-5-yl)-1H-indole-2-carboxamido)cyclohexane-1-carboxylic acid]: 5.2 nM.
For the compound `Cc1cc(OCCCc2c(C(=O)NC3CCC(C(=O)O)CC3)[nH]c3c(-c4c(C)ncnc4C)c(Cl)ccc23)cc(C)c1Cl` (single isomer, unassigned) [Example 747, 4-(6-Chloro-3-(3-(4-chloro-3,5-dimethylphenoxy)propyl)-7-(4,6-dimethylpyrimidin-5-yl)-1H-indole-2-carboxamido)cyclohexane-1-carboxylic acid], the Ki turned out to be 16 nM.
Take `Cc1cc(OCCCc2c3n(c4c(-c5c(C)nn(C)c5C)c(Cl)ccc24)CCCN(c2cc(C(=O)O)c4c(c2)nnn4C)C3=O)cc(C)c1Cl` [Example 5, 6-[8-Chloro-11-[3-(4-chloro-3,5-dimethyl-phenoxy)propyl]-1-oxo-7-(1,3,5-trimethylpyrazol-4-yl)-4,5-dihydro-3H-[1,4]diazepino[1,2-a]indol-2-yl]-3-methyl-benzotriazole-4-carboxylic acid]: the inhibition constant (Ki) came to 2.7 nM.
Consider `Cc1cc(OCCCc2c3n(c4c(-c5c(C)nn(C)c5C)c(Cl)ccc24)CCCN(c2cccc4c(C#N)cn(C)c24)C3=O)cc(C)c1Cl` [Example 6, 7-[8-Chloro-11-[3-(4-chloro-3,5-dimethyl-phenoxy)propyl]-1-oxo-7-(1,3,5-trimethylpyrazol-4-yl)-4,5-dihydro-3H-[1,4]diazepino[1,2-a]indol-2-yl]-1-methyl-indole-3-carbonitrile], for which the Ki is 54 nM.
Consider `Cc1cc(OCCCc2c3n(c4c(-c5c(C)nn(C)c5C)c(Cl)ccc24)CCCN(Cc2cc(C(=O)O)cc(N4CCN(C(=O)OC(C)(C)C)CC4)n2)C3=O)cc(C)c1Cl` [Example 8, 2-(4-(Tert-butoxycarbonyl)piperazin-1-yl)-6-((8-chloro-11-(3-(4-chloro-3,5-dimethylphenoxy)propyl)-1-oxo-7-(1,3,5-trimethyl-1H-pyrazol-4-yl)-4,5-dihydro-1H-[1,4]diazepino[1,2-a]indol-2(3H)-yl)methyl)isonicotinic acid], for which the inhibition constant (Ki) was 27 nM.
Regarding `Cc1cc(OCCCc2c3n(c4c(-c5c(C)nn(C)c5C)c(Cl)ccc24)CCCN(Cc2cc(C(=O)O)cc(N4CCN(C(=O)c5ccco5)CC4)n2)C3=O)cc(C)c1Cl` [Example 9, 2-((8-Chloro-11-(3-(4-chloro-3,5-dimethylphenoxy)propyl)-1-oxo-7-(1,3,5-trimethyl-1H-pyrazol-4-yl)-4,5-dihydro-1H-[1,4]diazepino[1,2-a]indol-2(3H)-yl)methyl)-6-(4-(furan-2-carbonyl)piperazin-1-yl)isonicotinic acid], the Ki was 20 nM.
The same measure, in the same setting: the same measure for `Cc1cc(OCCCc2c3n(c4c(-c5c(C)nn(C)c5C)c(Cl)ccc24)CCCN(Cc2cc(C(=O)O)cc(N4CCNCC4)n2)C3=O)cc(C)c1Cl` [Example 10, 2-((8-Chloro-11-(3-(4-chloro-3,5-dimethylphenoxy)propyl)-1-oxo-7-(1,3,5-trimethyl-1H-pyrazol-4-yl)-4,5-dihydro-1H-[1,4]diazepino[1,2-a]indol-2(3H)-yl)methyl)-6-(piperazin-1-yl)isonicotinic acid]: 57 nM.
Consider `CC(=O)N1CCN(c2cc(C(=O)O)cc(CN3CCCn4c(c(CCCOc5cc(C)c(Cl)c(C)c5)c5ccc(Cl)c(-c6c(C)nn(C)c6C)c54)C3=O)n2)CC1` [Example 17, 2-(4-acetylpiperazin-1-yl)-6-((8-chloro-11-(3-(4-chloro-3,5-dimethylphenoxy)propyl)-1-oxo-7-(1,3,5-trimethyl-1H-pyrazol-4-yl)-4,5-dihydro-1H-[1,4]diazepino[1,2-a]indol-2(3H)-yl)methyl)isonicotinic acid], for which the Ki was 10 nM.
`Cc1cc(OCCCc2c3n(c4c(-c5c(C)nn(C)c5C)c(Cl)ccc24)CCCN(c2cc4c(c(C(=O)O)c2)OCC4)C3=O)cc(C)c1Cl` [Example 18, 5-[8-chloro-11-[3-(4-chloro-3,5-dimethyl-phenoxy)propyl]-1-oxo-7-(1,3,5-trimethylpyrazol-4-yl)-4,5-dihydro-3H-[1,4]diazepino[1,2-a]indol-2-yl]-2,3-dihydrobenzofuran-7-carboxylic acid]: the Ki was 5.8 nM.
On to `CC[C@@H]1Cn2c(c(CCCOc3cc(C)c(Cl)c(C)c3)c3ccc(Cl)c(-c4c(C)nn(C)c4C)c32)C(=O)N1` [Example 24, (R)-7-chloro-10-(3-(4-chloro-3,5-dimethylphenoxy)propyl)-3-ethyl-6-(1,3,5-trimethyl-1H-pyrazol-4-yl)-3,4-dihydropyrazino[1,2-a]indol-1(2H)-one], for which the Ki turned out to be 25 nM.
For `Cc1cc(OCCCc2c3n(c4c(-c5c(C)nn(C)c5C)c(Cl)ccc24)CCCN(c2cc4c(c(C(=O)O)c2)OCCO4)C3=O)cc(C)c1Cl` [Example 25, 7-(8-Chloro-11-(3-(4-chloro-3,5-dimethylphenoxy)propyl)-1-oxo-7-(1,3,5-trimethyl-1H-pyrazol-4-yl)-4,5-dihydro-1H-[1,4]diazepino[1,2-a]indol-2(3H)-yl)-2,3-dihydrobenzo[b][1,4]dioxine-5-carboxylic acid], the Ki amounted to 1.1 nM.
As for `Cc1ccc(S(=O)(=O)N2CCN(c3cc(C(=O)O)cc(CN4CCCn5c(c(CCCOc6cc(C)c(Cl)c(C)c6)c6ccc(Cl)c(-c7c(C)nn(C)c7C)c65)C4=O)n3)CC2)o1` [Example 27, 2-((8-chloro-11-(3-(4-chloro-3,5-dimethylphenoxy)propyl)-1-oxo-7-(1,3,5-trimethyl-1H-pyrazol-4-yl)-4,5-dihydro-1H-[1,4]diazepino[1,2-a]indol-2(3H)-yl)methyl)-6-(4-((5-methylfuran-2-yl)sulfonyl)piperazin-1-yl)isonicotinic acid], the Ki was determined as 39 nM.
Regarding `Cc1cc(OCCCc2c3n(c4c(-c5c(C)nn(C)c5C)c(Cl)ccc24)CCCN(Cc2cc(C(=O)O)cc(N4CCN(C(=O)N(C)C)CC4)n2)C3=O)cc(C)c1Cl` [Example 34, 2-((8-Chloro-11-(3-(4-chloro-3,5-dimethylphenoxy)propyl)-1-oxo-7-(1,3,5-trimethyl-1H-pyrazol-4-yl)-4,5-dihydro-1H-[1,4]diazepino[1,2-a]indol-2(3H)-yl)methyl)-6-(4-(dimethylcarbamoyl)piperazin-1-yl)isonicotinic acid], the Ki turned out to be 12 nM.
With `Cc1cc(OCCCc2c3n(c4c(-c5c(C)nn(C)c5C)c(Cl)ccc24)[C@H](C)CN(c2ccc(C(=O)O)c(Cl)c2)C3=O)cc(C)c1Cl` [Example 35, (R)-2-chloro-4-(7-chloro-10-(3-(4-chloro-3,5-dimethylphenoxy)propyl)-4-methyl-1-oxo-6-(1,3,5-trimethyl-1H-pyrazol-4-yl)-3,4-dihydropyrazino[1,2-a]indol-2(1H)-yl)benzoic acid], the Ki was determined as 1.5 nM.
In the case of `Cc1cc(OCCCc2c3n(c4c(-c5c(C)nn(C)c5C)c(Cl)ccc24)CCCN(Cc2cc(C(=O)O)cc(N4CCN(S(=O)(=O)CCc5ccccc5)CC4)n2)C3=O)cc(C)c1Cl` [Example 38, 2-((8-Chloro-11-(3-(4-chloro-3,5-dimethylphenoxy)propyl)-1-oxo-7-(1,3,5-trimethyl-1H-pyrazol-4-yl)-4,5-dihydro-1H-[1,4]diazepino[1,2-a]indol-2(3H)-yl)methyl)-6-(4-(phenethylsulfonyl)piperazin-1-yl)isonicotinic acid], the inhibition constant (Ki) came to 62 nM.
Take `Cc1cc(OCCCc2c3n(c4c(-c5c(C)nn(C)c5C)c(Cl)ccc24)CCCN(c2cc(C(=O)O)cc4c2cnn4CCN(C)C)C3=O)cc(C)c1Cl` [Example 40, 4-[8-Chloro-11-[3-(4-chloro-3,5-dimethyl-phenoxy)propyl]-1-oxo-7-(1,3,5-trimethylpyrazol-4-yl)-4,5-dihydro-3H-[1,4]diazepino[1,2-a]indol-2-yl]-1-[2-(dimethylamino)ethyl]indazole-6-carboxylic acid]: the Ki came to 3.9 nM.
Still for that read-out and setting: the same measure for `Cc1cc(OCCCc2c3n(c4c(-c5c(C)nn(C)c5C)c(Cl)ccc24)CCCN(c2cc(C(=O)O)c4cn(CCN(C)C)nc4c2)C3=O)cc(C)c1Cl` [Example 42, 6-[8-chloro-11-[3-(4-chloro-3,5-dimethyl-phenoxy)propyl]-1-oxo-7-(1,3,5-trimethylpyrazol-4-yl)-4,5-dihydro-3H-[1,4]diazepino[1,2-a]indol-2-yl]-2-[2-(dimethylamino)ethyl]indazole-4-carboxylic acid]: 8 nM.

In another assay the test system is H929 human cancer cell lines. Briefly: Cellular viability / proliferation (Cell TiterGlo, 72 h). It counts as cell-based. Particulars: Homo sapiens, NCI-H929, 72 h, read-out: GI50 on cellular proliferation of H929 human cancer cell lines, H929 cells, 72 h, Cell TiterGlo, 10% FBS. Here is the method:
Cellular Viability of Human Tumor Cell Lines
To evaluate compound effect on cellular proliferation, cells were plated at 1,000 cells/well in 96-well tissue culture plates in a total volume of 90 μL medium supplemented with 10% FBS (Sigma, Saint Louis, Mo.). 24 hours later, 10 μL of compound (in a 2-fold serial dilution) is added to the cells for a top concentration of 50 μM and a final DMSO concentration <1%. After 72 hours, 50 μL of Cell TiterGlo (Promega, Madison, Wis., USA) reagent is added to each well and plates are incubated at room temperature, in the dark, for 30 minutes. Luminescence is measured on a BioTek Cytation 3. Luminescence values are imported into a template in XLFit (Guildford, Surrey, UK) that uses a four-parameter fit to generate an IC50 value for each compound dilution series on the plate.
In general terms: In ATP-based viability assays light output follows the ATP content of the culture.
As for `COCCn1c(C(=O)O)cc2cc(C)cc(N3C[C@@H](C)n4c(c(CCCOc5cc(C)c(Cl)c(C)c5)c5ccc(Cl)c(-c6c(C)nc(CN7CCN(C)C(=O)C7)nc6C)c54)C3=O)c21` [Example 729, (R)-7-(7-chloro-10-(3-(4-chloro-3,5-dimethylphenoxy)propyl)-6-(4,6-dimethyl-2-((4-methyl-3-oxopiperazin-1-yl)methyl)pyrimidin-5-yl)-4-methyl-1-oxo-3,4-dihydropyrazino[1,2-a]indol-2(1H)-yl)-1-(2-methoxyethyl)-5-methyl-1H-indole-2-carboxylic acid], the GI50 turned out to be 260 nM.

As a reminder, the Ki is the equilibrium dissociation constant of an inhibitor or competing ligand from its target.
